{"source": "patent US6465443B2", "about": "“Method for inhibiting bone resorption” (Merck & Co., Inc., priority 1997, dated 2002)", "key": {"canine esophagus tissue": {"tested_on": "canine esophagus tissue", "assay": "Esophageal irritation potential, dog model (esophageal infusion, histopathology)", "assay_type": "in vivo", "conditions": "for Esophageal irritation potential: low dosages on consecutive days (Group 7, Group 8)", "protocol": "The esophageal irritation potential of the bisphosphonates is evaluated using a dog model.\nThe following solutions are prepared:\n(1) simulated gastric juice (pH about 2), i.e. the control solution.\n(5) simulated gastric juice (pH about 2) containing about 0.20 mg/mL of risedronate sodium on a risedronic acid active basis.\n(6) simulated gastric juice (pH about 2) containing about 4.0 mg/mL of tiludronate disodium on a tiludronic acid active basis.\nThe simulated gastric juice is prepared by dissolving about 960 mg of pepsin (L-585,228000B003, Fisher Chemical) in about 147 mL of 0.90 (wt %) NaCl (aqueous), adding about 3 mL of 1.0 M HCl (aqueous), and adjusting the volume to about 300 mL with deionized water. The pH of the resulting solution is measured and if necessary is adjusted to about 2 using 1.0 M HCl (aqueous) or 1.0 M NaOH (aqueous).\nThe animals used in the experiments are anesthetized and administered about 50 mL of the appropriate solution over about 30 minutes by infusion into the esophagus using an infusion pump and a rubber catheter. The following treatment experiments are run:\nGroup 1: This control group contains four animals. Each animal is administered a dosage of about 50 mL of simulated gastric juice [solution (1)] on each of five consecutive days. […]\nGroup 2: This group contains four animals. […]\nGroup 3: This group contains five animals. […] The animals are sacrificed about 24 hours after the dose is administered.\nGroup 4: This group contains five animals. […] The animals are sacrificed about 7 days after the dose is administered.\nGroup 5: This group contains six animals. […] The animals are administered a total of four dosages. The animals are sacrificed about 7 days after the last dose is administered.\nGroup 6: This group contains six animals. […] The animals are administered a total of eight dosages. The animals are sacrificed about four days after the last dose is administered.\nGroup 7: This group contains eight animals. Each animal is administered a dosage of about 50 mL of simulated gastric juice containing about 0.20 mg/mL of risedronate [solution (5)] on each of five consecutive days. […]\nGroup 8: This group contains four animals. Each animal is administered a dosage of about 50 mL of simulated gastric juice containing about 4.0 mg/mL of tiludronate [solution (6)] on each of five consecutive days. […]\nThe esophagus from each sacrificed animal is removed and prepared for histopathology using standard techniques by embedding the tissue in paraffin, staining with hematoxylin and eosin. The sections are examined microscopically."}, "esophagus": {"tested_on": "esophagus", "conditions": "oral administration, patients; cited from earlier work"}, "bone mineralization": {"tested_on": "bone mineralization", "conditions": "doses used clinically; cited from earlier work"}, "bone resorption": {"tested_on": "bone resorption", "conditions": "early postmenopausal bone loss (Mortensen et al.); cited from earlier work"}, "[1]": {"conditions": "Group 4: 0.80 mg/mL, 1X, sacrifice 7 days after dosing"}}, "data": [{"smiles": "NCCCC(O)(P(=O)(O)O)P(=O)(O)O", "note": "[Alendronate, 4-amino-1-hydroxybutylidene-1,1-bisphosphonic acid monosodium trihydrate]", "values": [{"measurement": "Histo-pathology (esophagus)", "setting": "canine esophagus tissue; Group 2 (n = 4): 0.20 mg/mL, about 50 mL in simulated gastric juice pH about 2, 1X daily for 5 days, sacrifice immediately after last dosing, listed as alendronate, monosodium trihydrate", "result": "deep ulceration of the epithelial surface and marked submucosal inflammation and vacuolation"}, {"measurement": "Histo-pathology (esophagus)", "setting": "canine esophagus tissue; Group 3 (n = 5): 0.80 mg/mL, about 50 mL in simulated gastric juice, 1X, sacrifice 24 hours after dosing, listed as alendronate, monosodium trihydrate", "result": "intact epithelial surface with very slight submucosal inflammation and vacuolation"}, {"measurement": "Histo-pathology (esophagus)", "setting": "canine esophagus tissue; Group 3 (n = 5): 0.80 mg/mL, about 50 mL in simulated gastric juice, 1X, sacrifice 24 hours after dosing, monosodium trihydrate", "result": "Intact epithelial"}, {"measurement": "Histo-pathology (esophagus)", "setting": "canine esophagus tissue; Group 4 (n = 5): 0.80 mg/mL, about 50 mL in simulated gastric juice, 1X, sacrifice 7 days after dosing, listed as alendronate, monosodium trihydrate", "result": "intact epithelium with either minimal inflammation (two of the five animals) or no inflammation (three of the five animals) and no vacuolation"}, {"measurement": "Animals with minimal inflammation", "setting": "canine esophagus tissue; [1]", "result": "inflammation (2 of 5"}, {"measurement": "Animals with no inflammation", "setting": "canine esophagus tissue; [1]", "result": "inflammation (3 of 5"}, {"measurement": "Histo-pathology (esophagus)", "setting": "canine esophagus tissue; Group 5 (n = 6): 0.80 mg/mL, about 50 mL in simulated gastric juice, 1X weekly for a total of 4 doses, sacrifice 7 days after last dosing, listed as alendronate, monosodium trihydrate", "result": "normal with an intact epithelium and absence of inflammatory cells in the submucosa"}, {"measurement": "Histo-pathology (esophagus)", "setting": "canine esophagus tissue; Group 5 (n = 6): 0.80 mg/mL, about 50 mL in simulated gastric juice, 1X weekly for a total of 4 doses, sacrifice 7 days after last dosing, monosodium trihydrate", "result": "Intact epithelium with"}, {"measurement": "Histo-pathology (esophagus)", "setting": "canine esophagus tissue; Group 6 (n = 6): 0.40 mg/mL, about 50 mL in simulated gastric juice, 2X weekly for 4 weeks, sacrifice immediately after last dosing (table; text: about four days after), listed as alendronate, monosodium trihydrate", "result": "deep ulceration of the epithelial surface and marked submucosal inflammation and vacuolation"}, {"measurement": "Adverse gastrointestinal (esophageal) effects associated with use", "setting": "esophagus", "result": "associated with esophagitis and/or esophageal ulcers"}]}, {"smiles": "CC(O)(P(=O)(O)O)P(=O)(O)O", "note": "[etidronate, 1-hydroxyethane-1,1-diphosphonic acid]", "values": [{"measurement": "Effect on bone mineralization", "setting": "bone mineralization", "result": "impairs mineralization at doses used clinically"}]}, {"smiles": "O=P(O)(O)C(Sc1ccc(Cl)cc1)P(=O)(O)O", "note": "[Tiludronate, (4-chlorophenyl)thiomethane-1,1-disphosphonic acid]", "values": [{"measurement": "Histo-pathology (esophagus)", "setting": "canine esophagus tissue; Group 8 (n = 4): 4.0 mg/mL, about 50 mL in simulated gastric juice, 1X daily for 5 days, sacrifice 24 hours after last dosing (table; text: immediately)", "result": "Slight submucosal"}, {"measurement": "Histo-pathology (esophagus)", "setting": "canine esophagus tissue; Group 8 (n = 4): 4.0 mg/mL, about 50 mL in simulated gastric juice, 1X daily for 5 days, sacrifice 24 hours after last dosing (table; text: immediately), listed as tiludronate", "result": "slight ulceration of the epithelial surface and slight submucosal inflammation and vacuolation"}, {"measurement": "Animals with slight submucosal inflammation and vacuolation", "setting": "canine esophagus tissue; Group 8: 4.0 mg/mL, 1X daily for 5 days", "result": "vacuolation (3 of 4"}, {"measurement": "Esophageal irritation potential", "setting": "canine esophagus tissue", "result": "high"}]}, {"smiles": "O=P(O)(O)C(O)(Cc1cccnc1)P(=O)(O)O", "note": "[Risedronate, 1-hydroxy-2-(3-pyridinyl)-ethylidene-1,1-bisphosphonic acid]", "values": [{"measurement": "Histo-pathology (esophagus)", "setting": "canine esophagus tissue; Group 7 (n = 8): 0.20 mg/mL, about 50 mL in simulated gastric juice, 1X daily for 5 days, sacrifice immediately after last dosing, listed as risedronate", "result": "deep ulceration of the epithelial surface and marked submucosal inflammation and vacuolation"}, {"measurement": "Animals with deep ulceration of epithelial surface", "setting": "canine esophagus tissue; Group 7: 0.20 mg/mL, 1X daily for 5 days, sacrifice immediately after last dosing", "result": "(4 of 8 animals)."}, {"measurement": "Esophageal irritation potential", "setting": "canine esophagus tissue", "result": "high"}, {"measurement": "Antiresorptive efficacy of cyclic dosing relative to continuous daily dosing", "setting": "bone resorption", "result": "cyclic dosing is actually less effective than continuous daily dosing"}]}, {"smiles": "NCCC(O)(P(=O)(O)O)P(=O)(O)O", "note": "[pamidronate, 3-amino-1-hydroxypropylidene-1,1-bisphosphonic acid]", "values": [{"measurement": "Adverse gastrointestinal (esophageal) effects associated with use", "setting": "esophagus", "result": "associated with esophageal ulcers"}]}]}
